Measured values from patent US20240173419A1, “CDK2 DEGRADERS AND USES THEREOF” (Kymera Therapeutics, Inc., priority 2022, published 2024).

Target: T1, CDK2 (Homo sapiens, UniProt P24941)
T1 construct: endogenous in cells; host or cells: MKN1 cells
Test: CDK2 degradation in MKN1 cells (AlphaLISA)
Assay type: cell-based
Conditions: 14 h incubation; for DC50: read-out: CDK2 degradation 14 h: Mean external-Abs DC50
How it was run: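 MKN1 cells (2e4/well) treated 14 h at 37° C with 11-point 1:5 dilutions (0.001 nM-10 μM, 0.1% DMSO). CDK2 in lysates quantified by AlphaLISA, no-cell background subtracted; DC50 from four-parameter logistic fit.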

Row | SMILES | CDK2 degradation 14 h: Average Dmax % | DC50 [nM]
1 | Cc1cc(S(=O)(=O)NC2CCC(CN3CCN(c4ccc(C5CCC(=O)NC5=O)cc4F)C(C)C3)CC2)ccc1Nc1ncc(C(F)(F)F)c(N2CCCC(C)(O)C2)n1 (stereo not drawn) [I-1137] | A (A (>75% o)) | < 100
2 | Cc1cc(S(=O)(=O)NC2CCC(CN3CCN(c4ccc(C5CCC(=O)NC5=O)c(C(F)(F)F)c4)CC3)CC2)ccc1Nc1ncc(C(F)(F)F)c(N2CCCC(C)(O)C2)n1 (stereo not drawn) [I-1138] | B (B (>50% -75%)) | > 1000
3 | Cc1cc(S(=O)(=O)NC2CCN(CC3CCN(c4ccc(C5CCC(=O)NC5=O)cc4F)CC3)CC2F)ccc1Nc1ncc(C(F)(F)F)c(N2CCCC(C)(O)C2)n1 (stereo not drawn) [I-1140] | A (A (>75% o)) | < 100
4 | Cc1cc(S(=O)(=O)NC2CCN(CC3CCN(c4ccc(C5CCC(=O)NC5=O)cc4F)CC3)CC2F)ccc1Nc1ncc(C(F)(F)F)c(N2CCCC(C)(O)C2)n1 (stereo not drawn) [I-1141] | A (A (>75% o)) | < 100
5 | Cc1cc(S(=O)(=O)NC2CCC(CN3CCN(c4ncc(C5CCC(=O)NC5=O)cc4F)CC3)CC2)ccc1Nc1ncc(C(F)(F)F)c(N2CCCC(C)(O)C2)n1 (stereo not drawn) [I-1142] | A (A (>75% o)) | < 100
6 | Cc1cc(S(=O)(=O)NC2CCC(CN3CCN(c4cccc(NC5CCC(=O)NC5=O)c4F)CC3)CC2)ccc1Nc1ncc(C(F)(F)F)c(N2CCCC(C)(O)C2)n1 (stereo not drawn) [I-1143] | A (A (>75% o)) | < 100

Second part, the molecule after the results:

Row | CDK2 degradation 14 h: Average Dmax % | DC50 [nM] | SMILES
7 | A (A (>75% o)) | 100 to 500 | Cc1cc(S(=O)(=O)NC2CCC(CN3CCN(c4cc(F)cc(NC5CCC(=O)NC5=O)c4)CC3)CC2)ccc1Nc1ncc(C(F)(F)F)c(N2CCCC(C)(O)C2)n1 (stereo not drawn) [I-1144]
8 | A (A (>75% o)) | < 100 | Cc1cc(S(=O)(=O)NC2CCC(CN3CCN(c4cccc5c4n(C)c(=O)n5C4CCC(=O)NC4=O)CC3)CC2)ccc1Nc1ncc(C(F)(F)F)c(N2CCCC(C)(O)C2)n1 (stereo not drawn) [I-1145]
9 | A (A (>75% o)) | < 100 | Cc1cc(S(=O)(=O)NC2CCC(CN3CCN(c4c(C)cc(C5CCC(=O)NC5=O)cc4F)CC3)CC2)ccc1Nc1ncc(C(F)(F)F)c(N2CCCC(C)(O)C2)n1 (stereo not drawn) [I-1146]
10 | A (A (>75% o)) | < 100 | Cc1cc(S(=O)(=O)N2CCC(CN(C)C3CCN(c4cccc5c4n(C)c(=O)n5C4CCC(=O)NC4=O)CC3)CC2)ccc1Nc1nccc(-c2cnc(C)n2C(C)C)n1 (stereo not drawn) [I-1152]
11 | A (A (>75% o)) | 100 to 500 | Cc1cc(S(=O)(=O)N2CCC(CN(C)C3CCN(c4cccc5c4n(C)c(=O)n5C4CCC(=O)NC4=O)CC3)CC2)ccc1Nc1ncc(C(F)(F)F)c(C2CCCCC2)n1 (stereo not drawn) [I-1153]
12 | A (A (>75% o)) | < 100 | Cc1cc(S(=O)(=O)N2CCC(CN(C)C3CCN(c4cccc5c4n(C)c(=O)n5C4CCC(=O)NC4=O)CC3)CC2)ccc1Nc1ncc(C(F)(F)F)c(-c2cnn(C)c2)n1 (stereo not drawn) [I-1155]
